The target in one experiment is PD-1/PD-L1 (Homo sapiens, UniProt Q9NZQ7). Kind of experiment: PD-1/PD-L1 biochemical protein-protein interaction assay (ALPHA). It counts as binding. The following applies: 0.3 nM His tagged PD-L1, 2.5 nM biotinylated Fc-PD-1, 60 minutes at 25° C., read-out: IC50 PD-L1-PD-1 Alpha IC50-mono PD-L1-fcP-D1. In short, it runs like this:
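Bead proximity read-out: compound-driven loss of ALPHA signal between anti-His acceptor and streptavidin donor beads (20 μg/mL acceptor). Proteins: 0.3 nM His-PD-L1, 2.5 nM biotin-Fc-PD-1, final. 60 min, 25° C, Hepes pH 7.4 buffer. IC50 via four-parameter dose-response fit.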

The target of the next experiment is T1, PD-1/PD-L1 interaction (Homo sapiens, UniProt Q9NZQ7).
T1 construct: expressed in transfected cells; host or cells: CHO cells (aAPC-PD-L1) co-cultured with Jurkat cells overexpressing PD-1 and an NFAT-luciferase reporter
T1 sequence (Q9NZQ7 19-290): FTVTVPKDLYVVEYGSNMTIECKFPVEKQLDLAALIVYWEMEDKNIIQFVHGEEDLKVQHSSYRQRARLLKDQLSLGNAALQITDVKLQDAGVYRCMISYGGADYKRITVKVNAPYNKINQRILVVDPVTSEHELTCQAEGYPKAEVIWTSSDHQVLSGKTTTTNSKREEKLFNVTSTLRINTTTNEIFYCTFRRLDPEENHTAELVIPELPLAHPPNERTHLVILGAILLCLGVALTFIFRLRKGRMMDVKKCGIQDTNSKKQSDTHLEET
The experiment is described as follows: PD-1/PD-L1 NFAT reporter co-culture assay. Particulars: Jurkat PD-1 NFAT-luciferase cells co-cultured with aAPC-PD-L1 CHO cells, 6 hrs at 37° C.; read-out: EC50 NFAT Luciferase. In kind it is cell-based. An outline of the steps: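 CHO aAPC-PD-L1 seeded overnight; PD-1/NFAT-luc Jurkat + cpd in RPMI 1640, 2% FBS added at once; 6 h, 37 °C; ONE-Glo luminescence; EC50, 4-parameter fit.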

Another experiment concerns the target T2, PD-L1 (Homo sapiens, UniProt Q9NZQ7).
T2 construct: determine if they can specifically dimerize the extracellular domains of PD-L1
Kind of experiment: PD-L1/PD-L1 dimerization biochemical protein-protein interaction assay (ALPHA). Particulars: compound-induced PD-L1 dimerization, head prints '1 nM' (0.5 nM His-tagged PD-L1 and 0.5 nM FLAG-tagged PD-L1), read-out: AC50 PDL1 Dimer Alpha 1 nM. It counts as binding. Here is the method: PD-L1/PD-L1 Dimerization Biochemical Protein-Protein Interaction Assay:
Compounds were tested in biochemical protein-protein interaction assays to determine if they can specifically dimerize the extracellular domains of PD-L1. Dimerization of the proteins (His-tagged PD-L1 and FLAG-tagged PD-L1) is measured using a bead based Amplified Luminescent Proximity Homogeneous Assay (ALPHA) platform. […] Assays are performed in 25 mM Hepes (pH 7.4), 150 mM NaCl, 3.4 mM EDTA, 0.005% Tween 20, and 0.01% BSA. Final protein concentration in the assays were 0.5 nM (His tagged PD-L) and 0.5 nM (FLAG tagged PD-L1). After an assay reaction time of 2 hours at 25° C., 20 μg/mL (final assay concentration) ALPHA assay acceptor beads (anti-His coated) were added and incubated for 60 minutes at 25° C. Binding was measured following a final 60 minute incubation with 40 μg/mL (final assay concentration) ALPHA assay donor beads (anti-FLAG coated). AC50 values were calculated from the fit of the dose-response curves to a four-parameter equation (Table 3).

Results on 14 compounds are retold here after patent publication US12590062B2, “PD-1/PD-L1 inhibitors” (Gilead Sciences, Inc., priority 2017, dated 2026).

Each structure is given as a SMILES string.

Sequence of PD-1/PD-L1 (Q9NZQ7 19-238 limits assumed): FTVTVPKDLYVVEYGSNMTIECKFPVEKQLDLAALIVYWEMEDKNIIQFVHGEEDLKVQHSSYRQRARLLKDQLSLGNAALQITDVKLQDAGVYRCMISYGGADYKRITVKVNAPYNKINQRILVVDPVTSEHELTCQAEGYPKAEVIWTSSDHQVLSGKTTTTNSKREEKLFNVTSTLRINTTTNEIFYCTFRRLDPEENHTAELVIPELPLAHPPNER
T2 sequence (Q9NZQ7 19-238 limits assumed): as above
T2 sequence (Q9NZQ7 19-238 limits assumed): as above

With `CS(=O)(=O)c1cncc(COc2nc(OCc3cccc(-c4cccc(-c5ccc(OCCNCCO)cc5)c4Cl)c3Cl)c(Cl)cc2CN2C[C@@H](O)C[C@H]2C(=O)O)c1` [Example 303, (2S,4S)-1-((5-chloro-6-((2,2′-dichloro-4″-(2-((2-hydroxyethyl)amino)ethoxy)-[1,1′:3′,1″-terphenyl]-3-yl)methoxy)-2-((5-(methylsulfonyl)pyridin-3-yl)methoxy)pyridin-3-yl)methyl)-4-hydroxypyrrolidine-2-carboxylic acid], the IC50 at PD-1/PD-L1 is 0.166 nM. The EC50 at PD-1/PD-L1 interaction came out at 289 nM. Moreover, the AC50 at PD-L1 worked out at 101 nM.
On to `CC(C)(NCc1cc(Cl)c(OCc2cccc(-c3cccc(-c4ccc(OCCNCCO)cc4)c3Cl)c2Cl)nc1OCc1cncc(S(C)(=O)=O)c1)C(=O)O` [Example 304, 2-(((5-chloro-6-((2,2′-dichloro-4″-(2-((2-hydroxyethyl)amino)ethoxy)-[1,1′:3′,1″-terphenyl]-3-yl)methoxy)-2-((5-(methylsulfonyl)pyridin-3-yl)methoxy)pyridin-3-yl)methyl)amino)-2-methylpropanoic acid], for which the IC50 at PD-1/PD-L1 was 0.064 nM. Further, the EC50 at PD-1/PD-L1 interaction was found to be 79 nM. In addition, at PD-L1, the AC50 came to 16.5 nM.
Turning to `Cc1c(COc2nc(OCc3cncc(C#N)c3)c(CN[C@@](C)(CO)C(=O)O)cc2Cl)cccc1-c1cccc(-c2ccc3c(c2)CC[C@@]3(CO)N(C)C)c1C` [Example 305, (S)-2-(((5-chloro-2-((5-cyanopyridin-3-yl)methoxy)-6-((3′-((R)-1-(dimethylamino)-1-(hydroxymethyl)-2,3-dihydro-1H-inden-5-yl)-2,2′-dimethyl-[1,1′-biphenyl]-3-yl)methoxy)pyridin-3-yl)methyl)amino)-3-hydroxy-2-methylpropanoic acid], on PD-1/PD-L1, the IC50 was found to be 0.158 nM. In addition, the concentration for a half-maximal effect (EC50) on PD-1/PD-L1 interaction was found to be 1770 nM. For the same compound, at PD-L1, the AC50 was 150 nM.
As to `Cc1c(COc2nc(OCc3cncc(C#N)c3)c(CNCCO)cc2Cl)cccc1-c1cccc(-c2ccc(C(O)CN(C)C)cc2)c1C` (stereo not drawn) [Example 306, 5-(((5-chloro-6-((4″-(2-(dimethylamino)-1-hydroxyethyl)-2,2′-dimethyl-[1,1′:3′,1″-terphenyl]-3-yl)methoxy)-3-(((2-hydroxyethyl)amino)methyl)pyridin-2-yl)oxy)methyl)nicotinonitrile], the concentration for half-maximal inhibition (IC50) on PD-1/PD-L1 turned out to be 1.97 nM. Moreover, at PD-1/PD-L1 interaction, the EC50 was determined as 547 nM. In addition, the AC50 on PD-L1 was 292 nM.
The like results for `COc1nc(-c2cccc(-c3cccc(COc4cc(OCc5cncc(C#N)c5)c(CN5CC[C@@H](O)C5)cc4Cl)c3C)c2C)ccc1CNC[C@@H](O)CC(=O)O` [Example 307, (S)-4-(((6-(3′-((2-chloro-5-((5-cyanopyridin-3-yl)methoxy)-4-(((R)-3-hydroxypyrrolidin-1-yl)methyl)phenoxy)methyl)-2,2′-dimethyl-[1,1′-biphenyl]-3-yl)-2-methoxypyridin-3-yl)methyl)amino)-3-hydroxybutanoic acid] were, in that order, 0.536 nM, 702 nM and 599 nM.
Consider `Cc1c(COc2cc(OCc3cncc(C#N)c3)c(CN3CC[C@@H](O)C3)cc2Cl)cccc1-c1cccc(-c2ccc(CNC[C@@H](O)CC(=O)O)cc2)c1C` [Example 308, (S)-4-(((3″-((2-chloro-5-((5-cyanopyridin-3-yl)methoxy)-4-(((R)-3-hydroxypyrrolidin-1-yl)methyl)phenoxy)methyl)-2′,2″-dimethyl-[1,1′:3′,1″-terphenyl]-4-yl)methyl)amino)-3-hydroxybutanoic acid], for which the IC50 on PD-1/PD-L1 is 0.346 nM. Also, the EC50 on PD-1/PD-L1 interaction came to 373 nM. The AC50 on PD-L1 was 203 nM.
Turning to `Cc1c(COc2cc(OCc3cncc(C#N)c3)c(CN3CC[C@@H](O)C3)cc2Cl)cccc1-c1cccc(-c2ccc(OCCNC[C@@H](O)CC(=O)O)cc2)c1C` [Example 309, (S)-4-((2-((3″-((2-chloro-5-((5-cyanopyridin-3-yl)methoxy)-4-(((R)-3-hydroxypyrrolidin-1-yl)methyl)phenoxy)methyl)-2′,2″-dimethyl-[1,1′:3′,1″-terphenyl]-4-yl)oxy)ethyl)amino)-3-hydroxybutanoic acid], on PD-1/PD-L1, the IC50 amounted to 0.168 nM. Also, at PD-1/PD-L1 interaction, the EC50 was 240 nM. Besides, the AC50 at PD-L1 was determined as 103 nM.
With `Cc1c(COc2cc(OCc3cncc(C#N)c3)c(CN[C@](C)(CO)C(=O)O)cc2Cl)cccc1-c1cccc(-c2ccc(OCCNCCO)c(S(C)(=O)=O)c2)c1C` [Example 310, (R)-2-((5-chloro-2-((5-cyanopyridin-3-yl)methoxy)-4-((4″-(2-((2-hydroxyethyl)amino)ethoxy)-2,2′-dimethyl-3″-(methylsulfonyl)-[1,1′:3′,1″-terphenyl]-3-yl)methoxy)benzyl)amino)-3-hydroxy-2-methylpropanoic acid], at PD-1/PD-L1, the IC50 was determined as 0.069 nM. Further, the EC50 on PD-1/PD-L1 interaction was 215 nM. Besides, at PD-L1, the AC50 was found to be 121 nM.
With `Cc1c(COc2cc(OCc3cncc(C#N)c3)c(CN[C@@](C)(CO)C(=O)O)cc2Cl)cccc1-c1cccc(-c2ccc(OCCNCCO)cc2)c1C` [Example 311, (S)-2-((5-chloro-2-((5-cyanopyridin-3-yl)methoxy)-4-((4″-(2-((2-hydroxyethyl)amino)ethoxy)-2, 2′-dimethyl-[1, 1′:3′,1″-terphenyl]-3-yl)methoxy)benzyl)amino)-3-hydroxy-2-methylpropanoic acid], the IC50 at PD-1/PD-L1 is 0.064 nM. For the same compound, the EC50 at PD-1/PD-L1 interaction is 104 nM. Besides, the AC50 on PD-L1 was 75.5 nM.
On to `Cc1c(COc2cc(OCc3cncc(C#N)c3)c(CNC[C@@H](O)CC(=O)O)cc2Cl)cccc1-c1cccc(-c2ccc(OCCNC[C@@H](O)CC(=O)O)c(C(N)=O)c2)c1C` [Example 312, (S)-4-((2-((3-carbamoyl-3″-((4-((((S)-3-carboxy-2-hydroxypropyl)amino)methyl)-2-chloro-5-((5-cyanopyridin-3-yl)methoxy)phenoxy)methyl)-2′,2″-dimethyl-[1,1′:3′,1″-terphenyl]-4-yl)oxy)ethyl)amino)-3-hydroxybutanoic acid], for which, on PD-1/PD-L1, the IC50 was determined as 0.051 nM. At PD-1/PD-L1 interaction, the EC50 came out at 97 nM. Besides, the AC50 at PD-L1 was 144 nM.
For `Cc1c(COc2cc(OCc3cncc(C#N)c3)c(CN[C@@](C)(CO)C(=O)O)cc2Cl)cccc1-c1cccc(-c2ccc(OCCN[C@@](C)(CO)C(=O)O)cc2)c1C` [Example 313, (S)-2-((4-((4″-(2-(((S)-2-carboxy-1-hydroxypropan-2-yl)amino)ethoxy)-2,2′-dimethyl-[1,1′:3′,1″-terphenyl]-3-yl)methoxy)-5-chloro-2-((5-cyanopyridin-3-yl)methoxy)benzyl)amino)-3-hydroxy-2-methylpropanoic acid], the IC50 at PD-1/PD-L1 turned out to be 0.051 nM. Also, the EC50 at PD-1/PD-L1 interaction was 152 nM. Also, the AC50 at PD-L1 was found to be 91.3 nM.
Consider `COc1cc(-c2cccc(-c3cccc(-c4ccc(CNC[C@@H](O)CC(=O)O)c(OC)c4)c3C)c2C)ccc1CNC[C@@H](O)CC(=O)O` [Example 317, (3S,3′S)-4,4′-(((3,3′″-dimethoxy-2′,2″-dimethyl-[1,1′:3′,1″:3″,1′″-quaterphenyl]-4,4′″-diyl)bis(methylene))bis(azanediyl))bis(3-hydroxybutanoic acid)], for which the IC50 on PD-1/PD-L1 amounted to 0.577 nM. For the same compound, the EC50 at PD-1/PD-L1 interaction came out at 1100 nM. At PD-L1, the AC50 stood at 1180 nM.
Regarding `Cc1c(COc2cc(OCc3cncc(C#N)c3)c(CN[C@@](C)(CO)C(=O)O)cc2Cl)cccc1-c1cccc(-c2ccc(CNCC3CCC(=O)N3)cc2)c1C` (stereo partly drawn) [Example 323, (2S)-2-((5-chloro-2-((5-cyanopyridin-3-yl)methoxy)-4-((2,2′-dimethyl-4″-((((5-oxopyrrolidin-2-yl)methyl)amino)methyl)-[1,1′:3′,1″-terphenyl]-3-yl)methoxy)benzyl)amino)-3-hydroxy-2-methylpropanoic acid], at PD-1/PD-L1, the IC50 worked out at 0.074 nM. Besides, on PD-1/PD-L1 interaction, the EC50 was found to be 168 nM. At PD-L1, the AC50 was 67.1 nM.
For `Cc1c(-c2ccc(CN3CC[C@@H](O)C3)cc2)cccc1-c1cccc(-c2ccc(CNC[C@@H](O)CC(=O)O)c(OCCCC#N)c2)c1C` [Example 324, (S)-4-(((3-(3-cyanopropoxy)-4′″-(((R)-3-hydroxypyrrolidin-1-yl)methyl)-2′,2″-dimethyl-[1,1′:3′,1″:3″,1′″-quaterphenyl]-4-yl)methyl)amino)-3-hydroxybutanoic acid], the IC50 at PD-1/PD-L1 worked out at 0.505 nM. In addition, the EC50 on PD-1/PD-L1 interaction turned out to be 894 nM. The AC50 at PD-L1 was 1020 nM.
